Type in all cases: biochemical
One experiment deals with T1, human FLT4 (Homo sapiens, UniProt P35916).
T1 construct: a construct expressing the human FLT4 (789-1207) with an amino terminal GST tag; host or cells: Sf9 insect cells (baculovirus)
In words: FLT4 kinase assay (DELFIA enzyme inhibition). The settings on record: read-out: FLT4 IC50. Summed up: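 Read-out is DELFIA: biotinylated MET Tyr1253-derived peptide captured on Neutravidin, phosphotyrosine detected by Eu-antibody time-resolved fluorescence. Enzyme is Sf9-expressed GST-FLT4 (789-1207), reacting 30 min at room temperature before EDTA stop. IC50 derived from plotted % inhibition.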

Another experiment has as its target T2, human FLT3 (Homo sapiens, UniProt P36888).
T2 construct: a construct expressing the human FLT3 (564-993) with an amino terminal GST tag; host or cells: Sf9 insect cells (baculovirus)
T2 sequence (P36888 564-993): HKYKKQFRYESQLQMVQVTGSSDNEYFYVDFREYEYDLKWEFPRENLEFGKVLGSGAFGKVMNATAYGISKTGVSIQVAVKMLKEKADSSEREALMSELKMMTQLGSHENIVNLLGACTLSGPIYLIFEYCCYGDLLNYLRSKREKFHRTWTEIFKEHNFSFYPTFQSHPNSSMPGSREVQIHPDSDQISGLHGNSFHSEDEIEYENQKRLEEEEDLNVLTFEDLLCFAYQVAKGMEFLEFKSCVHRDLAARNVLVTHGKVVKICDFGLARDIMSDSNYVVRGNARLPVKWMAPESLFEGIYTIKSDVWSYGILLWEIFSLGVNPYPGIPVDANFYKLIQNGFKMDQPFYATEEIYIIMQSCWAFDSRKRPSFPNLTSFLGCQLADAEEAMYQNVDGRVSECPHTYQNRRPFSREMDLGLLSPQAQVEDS
The experiment in a line: FLT3 kinase assay (DELFIA enzyme inhibition). Summed up:
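GST-tagged human FLT3 (564-993), expressed in sf9 cells, phosphorylated a biotinylated Gastrin Precursor (Tyr 87)-derived peptide for 30 min at room temperature before EDTA stop. The captured peptide was detected by Eu-labelled anti-phosphotyrosine DELFIA time-resolved fluorescence. IC50 was derived from % inhibition curves.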

A further experiment has as its target T3, human Aurora A (Homo sapiens, UniProt O14965).
T3 construct: Histidine tag (N); host or cells: Sf9 insect cells (baculovirus)
T3 sequence (O14965 1-403): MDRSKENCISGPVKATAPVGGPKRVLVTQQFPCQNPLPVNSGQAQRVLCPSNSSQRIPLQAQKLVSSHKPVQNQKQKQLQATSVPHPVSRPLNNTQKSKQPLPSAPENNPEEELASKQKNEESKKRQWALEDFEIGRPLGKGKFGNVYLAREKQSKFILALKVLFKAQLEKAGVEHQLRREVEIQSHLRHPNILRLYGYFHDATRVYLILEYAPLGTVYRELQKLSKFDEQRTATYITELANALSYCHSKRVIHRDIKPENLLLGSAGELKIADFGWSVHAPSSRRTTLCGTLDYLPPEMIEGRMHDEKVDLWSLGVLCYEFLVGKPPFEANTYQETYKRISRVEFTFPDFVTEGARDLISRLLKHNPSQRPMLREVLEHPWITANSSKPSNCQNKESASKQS
The experiment in a line: Aurora A kinase assay (DELFIA enzyme inhibition). The settings on record: read-out: Aurora A IC50. Summed up: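 DELFIA read-out (time-resolved Eu fluorescence, 620 nm emission) after Neutravidin capture of biotinylated peptide substrate and antibody detection. Reaction: Ni-agarose-purified Aurora A, 30 min at room temperature, stopped with 100 mM EDTA.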

T1 sequence (P35916 789-1207): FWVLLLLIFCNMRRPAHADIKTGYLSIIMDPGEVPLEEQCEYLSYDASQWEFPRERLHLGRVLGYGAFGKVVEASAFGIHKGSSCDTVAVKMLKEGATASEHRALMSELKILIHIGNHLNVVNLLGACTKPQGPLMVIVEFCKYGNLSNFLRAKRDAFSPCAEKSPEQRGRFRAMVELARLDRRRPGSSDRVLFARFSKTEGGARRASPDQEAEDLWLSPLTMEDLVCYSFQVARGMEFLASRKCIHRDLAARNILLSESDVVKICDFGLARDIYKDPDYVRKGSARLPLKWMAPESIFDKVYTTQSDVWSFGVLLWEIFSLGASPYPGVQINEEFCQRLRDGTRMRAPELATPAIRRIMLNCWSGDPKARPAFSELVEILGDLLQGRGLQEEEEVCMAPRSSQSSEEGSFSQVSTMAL

As usually defined, the IC50 is the concentration that inhibits the measured activity by half. As for `NC(=O)c1nc(-c2c(Cl)cccc2Cl)oc1Nc1ccc(N2CCNCC2)cc1` [Example Q-35, 2-(2,6-dichlorophenyl)-5-(4-(piperazin-1-yl)phenylamino)oxazole-4-carboxamide], the IC50 on human FLT4, on human FLT3 and at human Aurora A was less than 10 µM throughout.

`COc1ccc(-c2oc(-c3ccccc3F)nc2C(N)=O)cc1` [Example M-3, 2-(2-fluorophenyl)-5-(4-methoxyphenyl)oxazole-4-carboxamide]: the IC50 on human FLT4 is less than 10 µM; on human FLT3, less than 100 µM; at human Aurora A it was less than 100 µM.

As to `CNC(=O)N1CCN(c2ccc(-c3oc(-c4c(F)cccc4F)nc3C(N)=O)cc2)CC1` [Example J-1, 4-(4-(4-carbamoyl-2-(2,6-difluorophenyl)oxazol-5-yl)phenyl)-N-methylpiperazine-1-carboxamide], the half-inhibitory concentration (IC50) at human FLT4, at human FLT3 and at human Aurora A was less than 10 µM each time.

For the compound `NC(=O)c1nc(-c2c[nH]c3ccccc23)oc1-c1cccs1` [Example E-4, 2-(1H-indol-3-yl)-5-(thiophen-2-yl)oxazole-4-carboxamide], the figures for the IC50 on human FLT4, against human FLT3 and on human Aurora A were less than 10 µM, less than 100 µM and less than 100 µM, respectively.

For `NC(=O)c1nc(-c2ccccc2F)oc1-c1ccc(OCCN2CCOCC2)cc1` [Example F-27, 2-(2-fluorophenyl)-5-(4-(2-morpholinoethoxy)phenyl)oxazole-4-carboxamide], the IC50 on human FLT4, on human FLT3 and on human Aurora A was less than 10 µM in each case.

On to `NC(=O)c1nc(-c2c(F)cccc2F)oc1Nc1ccc(C(=O)N2CCCCC2)cc1` [Example Q-21, 2-(2,6-difluorophenyl)-5-(4-(piperidine-1-carbonyl)phenylamino)oxazole-4-carboxamide], for which the IC50 on human FLT4, on human FLT3 and at human Aurora A was less than 10 µM in each case.

As to `NC(=O)c1nc(Nc2cccnc2)oc1-c1ccc(N2CCNCC2)cc1` [Example R-14, 5-(4-(piperazin-1-yl)phenyl)-2-(pyridin-3-ylamino)oxazole-4-carboxamide], the IC50 on human FLT4, against human FLT3 and on human Aurora A was less than 10 µM in each case.

Regarding `CN(C)CCOc1ccc(-c2oc(-c3c(F)cccc3F)nc2C(N)=O)cc1` [Example F-15, 2-(2,6-difluorophenyl)-5-(4-(2-(dimethylamino)ethoxy)phenyl)oxazole-4-carboxamide], the IC50 at human FLT4, on human FLT3 and at human Aurora A was less than 10 µM in each case.

For the compound `NC(=O)c1nc(-c2cccc3[nH]ncc23)oc1Nc1ccc(N2CCN(C(=O)C(F)(F)F)CC2)cc1` [Example Q-60, 2-(1H-indazol-4-yl)-5-(4-(4-(2,2,2-trifluoroacetyl)piperazin-1-yl)phenylamino)oxazole-4-carboxamide], the IC50 on human FLT4, at human FLT3 and at human Aurora A was less than 10 µM each time.

Turning to `NC(=O)c1nc(-c2c(F)cccc2F)oc1Nc1ccc(C(=O)NCCCO)cc1` [Example U-17, 5-(4-((3-hydroxypropyl)carbamoyl)phenylamino)-2-(2,6-difluorophenyl)oxazole-4-carboxamide], the IC50 at human FLT4, against human FLT3 and at human Aurora A was less than 10 µM in each case.

As for `NC(=O)c1nc(-c2c(F)cccc2F)oc1Nc1cccc(N2CCOCC2)c1` [Example Q-2, 2-(2,6-difluorophenyl)-5-(3-morpholinophenylamino)oxazole-4-carboxamide], the IC50 at human FLT4, on human FLT3 and at human Aurora A was less than 10 µM each time.

As to `NC(=O)c1nc(-c2c(F)cccc2F)oc1-c1ccc(OCCCN2CCOCC2)cc1` [Example S-13, 2-(2,6-difluorophenyl)-5-(4-(3-morpholinopropoxy)phenyl)oxazole-4-carboxamide], the 50% inhibitory concentration (IC50) on human FLT4, against human FLT3 and at human Aurora A was less than 10 µM each time.
